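Test compounds were applied to cells in 96-well plates for 48 hours at 5 doses. At the GI50, growth is halved. The concentration for full growth arrest is given as TGI.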 Where a SMILES comes first, the peptide text is derived from it. The star is where a group is joined. Boc = CC(C)(C)OC(=O)*; OBn = c1ccc(CO*)cc1; Bn = c1ccc(C*)cc1
Experiments:
Assay in all cases: NCI tumour cell line growth inhibition, 48 h
[1] = system: A549 NSCLC
[2] = system: HL-60(TB) leukemia
[3] = system: BT-549 breast
[4] = system: SF-268 CNS
[5] = system: OVCAR-5 ovarian
[6] = system: UO-31 renal
[7] = system: MDA-N
[8] = system: 786-0 renal
[9] = system: LOX IMVI melanoma
[10] = system: CCRF-CEM leukemia

SMILES: C=C1CN(C(=O)c2cc3cc(OC)c(OC)c(OC)c3[nH]2)c2cc([N+](=O)[O-])ccc21
- TGI [1]: > 100 µM
- TGI [2]: > 100 µM
- TGI [3]: > 100 µM
- TGI [4]: > 100 µM
- TGI [5]: > 100 µM
- TGI [6]: > 100 µM
- TGI [7]: > 100 µM
- TGI [8]: > 100 µM
- TGI [9]: > 100 µM

SMILES: c1ccc(C[P+]2(c3ccccc3)CCCCC2)cc1
- TGI [10]: > 100 µM
- TGI [1]: > 100 µM
- TGI [2]: > 100 µM
- TGI [5]: > 100 µM
- TGI [6]: > 100 µM
- TGI [8]: > 100 µM
- TGI [9]: > 100 µM

SMILES: C=CCn1c(-c2ccc(N=NNc3ccc(-c4n[nH]c(=S)n4CC=C)cc3)cc2)n[nH]c1=S
- TGI [10]: > 100 µM
- TGI [1]: > 100 µM
- TGI [3]: 6.68 µM
- TGI [4]: 21.5 µM
- TGI [5]: > 100 µM
- TGI [6]: 3.97 µM
- TGI [8]: 25.4 µM
- TGI [9]: > 100 µM

SMILES: O=c1[nH]c(=O)n(COCCO)cc1-c1ccccc1
- TGI [10]: > 100 µM
- TGI [1]: > 100 µM
- TGI [2]: > 100 µM
- TGI [4]: > 100 µM
- TGI [5]: > 100 µM
- TGI [6]: > 100 µM
- TGI [7]: > 100 µM
- TGI [8]: > 100 µM
- TGI [9]: > 100 µM

SMILES: O=C1CCCn2c3ccccc3c3ccnc1c32
- TGI [10]: > 100 µM
- TGI [1]: > 100 µM
- TGI [2]: 23 µM
- TGI [4]: > 100 µM
- TGI [5]: > 100 µM
- TGI [6]: > 100 µM
- TGI [9]: > 100 µM

SMILES: C=CCCCN1C(=O)C2C3c4ccccc4C(C=O)(c4ccccc43)C2C1=O (configuration not stated)
- TGI [10]: 17.6 µM
- TGI [1]: 35.9 µM
- TGI [2]: 34.5 µM
- TGI [4]: 59 µM
- TGI [5]: 45.1 µM
- TGI [6]: 26 µM
- TGI [7]: 27.9 µM
- TGI [8]: 26.6 µM
- TGI [9]: 22.1 µM

SMILES: CSCC[C@@H](NC(=O)[C@H](CC(C)C)NC(=O)C(Cc1cnc[nH]1)NC(=O)CNC(=O)[C@@H](NC(=O)[C@H](C)NC(=O)[C@H](Cc1cn(C=O)c2ccccc12)NC(=O)[C@H](CCC(N)=O)NC(=O)[C@@H](N)CC(N)=O)C(C)C)C(N)=O (some centres not stated)
- TGI [10]: > 100 µM
- TGI [1]: > 100 µM
- TGI [2]: > 100 µM
- TGI [4]: > 100 µM
- TGI [5]: > 100 µM
- TGI [6]: > 100 µM
- TGI [9]: > 100 µM

SMILES: N#CCCN(CCN(CCN(C(=O)Nc1ccccc1)c1ccccc1)C(=O)Nc1ccccc1)C(=O)Nc1ccccc1
- TGI [10]: > 100 µM
- TGI [1]: > 100 µM
- TGI [3]: > 100 µM
- TGI [4]: > 100 µM
- TGI [5]: > 100 µM
- TGI [6]: > 100 µM
- TGI [7]: > 100 µM
- TGI [8]: > 100 µM
- TGI [9]: > 100 µM

SMILES: O=C(O)c1cc(/C=C/c2ccc(O)c(O)c2)ccc1O
- TGI [10]: 82.1 µM
- TGI [1]: > 100 µM
- TGI [2]: > 100 µM
- TGI [4]: > 100 µM
- TGI [5]: > 100 µM
- TGI [6]: > 100 µM
- TGI [7]: > 100 µM
- TGI [8]: > 100 µM
- TGI [9]: > 100 µM

SMILES: NCCCCN(CCCN)C(=O)OCc1ccccc1
- TGI [10]: > 100 µM
- TGI [1]: > 100 µM
- TGI [2]: > 100 µM
- TGI [3]: > 100 µM
- TGI [4]: > 100 µM
- TGI [5]: > 100 µM
- TGI [6]: > 100 µM
- TGI [8]: > 100 µM

SMILES: COc1cc(/C=C/C(=O)OC[C@]23O[C@H]2[C@@H](OC2OC(C)C(O)C(O)C2O)C2C=CO[C@@H](OC4OC(CO)C(O)C(O)C4O)C23)ccc1O (some centres not stated)
- TGI [1]: > 100 µM
- TGI [2]: > 100 µM
- TGI [3]: > 100 µM
- TGI [4]: > 100 µM
- TGI [5]: > 100 µM
- TGI [6]: > 100 µM
- TGI [7]: > 100 µM
- TGI [8]: > 100 µM
- TGI [9]: > 100 µM

SMILES: O=C(/C=C/c1ccco1)c1ccc(Nc2ccnc3cc(Cl)ccc23)cc1
- GI50 [10]: 6.56 µM
- TGI [10]: > 100 µM
- GI50 [1]: > 100 µM
- TGI [1]: > 100 µM
- GI50 [3]: > 100 µM
- TGI [3]: > 100 µM
- GI50 [4]: > 100 µM
- TGI [4]: > 100 µM
- GI50 [5]: 52 µM
- TGI [5]: > 100 µM
- GI50 [9]: 6.41 µM
- TGI [9]: > 100 µM

SMILES: CCOC(=O)n1c2ccccc2c2c(O)c(OC)c3c(c21)C(=O)NC3=O
- TGI [10]: > 100 µM
- TGI [1]: > 100 µM
- TGI [2]: 49.2 µM
- TGI [3]: > 100 µM
- TGI [5]: > 100 µM
- TGI [6]: > 100 µM
- TGI [7]: > 100 µM
- TGI [8]: 98.5 µM
- TGI [9]: 38.9 µM

SMILES: O=C(/C=C/c1ccccc1O)CC(=O)/C=C/c1ccccc1O
- TGI [10]: > 26.2 µM
- TGI [1]: 26.9 µM
- TGI [2]: 9.87 µM
- TGI [3]: 45.7 µM
- TGI [6]: 12.6 µM
- TGI [7]: 13.3 µM
- TGI [8]: 16.1 µM
- TGI [9]: 6.45 µM

SMILES: CC(=O)Nc1ccc(S(=O)(=O)/N=c2/sc(S(N)(=O)=O)nn2C)cc1
- TGI [1]: > 100 µM
- TGI [2]: > 100 µM
- TGI [3]: > 100 µM
- TGI [4]: > 100 µM
- TGI [5]: > 100 µM
- TGI [6]: > 100 µM
- TGI [8]: > 100 µM

SMILES: CC(C)OCC(O)COc1cc(=O)oc2ccccc12 (configuration not stated)
- TGI [10]: > 100 µM
- TGI [1]: > 100 µM
- TGI [2]: > 100 µM
- TGI [4]: > 100 µM
- TGI [5]: > 100 µM
- TGI [6]: > 100 µM
- TGI [7]: > 100 µM
- TGI [8]: > 100 µM
- TGI [9]: > 100 µM

SMILES: CC1(C)OC2C(CO)OC(/N=C(\NC#N)Oc3ccccc3)C2O1 (configuration not stated)
- TGI [10]: > 100 µM
- TGI [1]: > 100 µM
- TGI [2]: > 100 µM
- TGI [4]: > 100 µM
- TGI [5]: > 100 µM
- TGI [6]: > 100 µM
- TGI [9]: > 100 µM

SMILES: CS(=O)(=O)c1ccc(C2=C(c3ccccc3)C(=O)OC2)cc1
- TGI [10]: > 100 µM
- TGI [1]: > 100 µM
- TGI [2]: > 100 µM
- TGI [4]: > 100 µM
- TGI [5]: > 100 µM
- TGI [6]: > 100 µM
- TGI [7]: > 100 µM
- TGI [8]: > 100 µM
- TGI [9]: > 100 µM

SMILES: COc1ccc(/C=C/C=C2C(=O)NC(=S)NC2=O)cc1
- TGI [10]: 5.69 µM
- TGI [1]: 46.2 µM
- TGI [3]: 4.62 µM
- TGI [4]: 26.8 µM
- TGI [5]: 47.1 µM
- TGI [6]: 19.9 µM
- TGI [7]: 15.2 µM
- TGI [8]: 5.47 µM
- TGI [9]: 3.97 µM

SMILES: COC(=O)c1ccc2c(c1)CC1(C2)Cc2ccc3c(c2C1)CCC3 (configuration not stated)
- TGI [10]: > 100 µM
- TGI [1]: > 100 µM
- TGI [2]: 39.7 µM
- TGI [4]: > 100 µM
- TGI [5]: > 100 µM
- TGI [7]: 17.8 µM
- TGI [8]: > 100 µM
- TGI [9]: 60.7 µM

SMILES: CSc1nc(NC2CC2)c2c(n1)Sc1nc3ccccc3n1N=C2
- TGI [10]: > 100 µM
- TGI [1]: 97 µM
- TGI [3]: > 100 µM
- TGI [4]: 80.7 µM
- TGI [5]: > 100 µM
- TGI [6]: 44.4 µM
- TGI [7]: > 100 µM
- TGI [8]: 21 µM
- TGI [9]: > 100 µM

SMILES: CC(C)CC(NC(=O)C(CCC(=O)OCc1ccccc1)NC(=O)OC(C)(C)C)C(=O)NC(COCc1ccccc1)C(=O)NC(Cc1ccccc1)C(=O)O (configuration not stated) (Boc-E(OBn)LS(Bn)F-OH; configuration not given here)
- TGI [1]: > 100 µM
- TGI [2]: > 100 µM
- TGI [3]: > 100 µM
- TGI [5]: > 100 µM
- TGI [6]: > 100 µM
- TGI [7]: > 100 µM
- TGI [8]: > 100 µM

SMILES: COC12OC3(C4OC41)C(C(=O)O[C@H]3CO[Si](C)(C)C(C)(C)C)C2S(=O)(=O)c1ccccc1 (some centres not stated)
- TGI [10]: 4.04 µM
- TGI [1]: > 100 µM
- TGI [2]: 7.66 µM
- TGI [3]: > 100 µM
- TGI [5]: > 12.2 µM
- TGI [6]: > 5.18 µM
- TGI [8]: > 7.71 µM

— PubChem BioAssay (NCI)
